Patent EP2350075B1, “SUBSTITUTED IMIDAZO[1,2B]PYRIDAZINE COMPOUNDS AS TRK KINASE INHIBITORS” (Array Biopharma, Inc., priority 2008, dated 2010)

Target: T1, human TrkA (Homo sapiens, UniProt P04629)
T1 construct: histidine-tagged recombinant human TrkA, cytoplasmic domain; His tag; purchased Invitrogen Corp
Experiment: TrkA ELISA assay
Format: biochemical
Conditions: 2.5 nM TrkA, 500 µM ATP, 25 minutes at ambient temperature; read-out: TrkA Elisa Enzyme IC50
Description: An enzyme-linked immunosorbant assay (ELISA) was used to assess TrkA kinase activity in the presence of inhibitors. […] The assay buffer consisted of 25 mM MOPS pH 7.5, 0.005% (v/v) Triton X-100 and 5 mM MgCl2. The reaction mixture was removed from the plate by washing with PBS containing 0.1% (v/v) Tween 20. […] After the addition of 1M phosphoric acid, the chromogenic substrate color intensity was quantitated via absorbance at 450 nm. IC50 values were calculated using either a 4 or 5-parameter logistic curve fit.

T1 sequence (P04629 440-796 limits assumed): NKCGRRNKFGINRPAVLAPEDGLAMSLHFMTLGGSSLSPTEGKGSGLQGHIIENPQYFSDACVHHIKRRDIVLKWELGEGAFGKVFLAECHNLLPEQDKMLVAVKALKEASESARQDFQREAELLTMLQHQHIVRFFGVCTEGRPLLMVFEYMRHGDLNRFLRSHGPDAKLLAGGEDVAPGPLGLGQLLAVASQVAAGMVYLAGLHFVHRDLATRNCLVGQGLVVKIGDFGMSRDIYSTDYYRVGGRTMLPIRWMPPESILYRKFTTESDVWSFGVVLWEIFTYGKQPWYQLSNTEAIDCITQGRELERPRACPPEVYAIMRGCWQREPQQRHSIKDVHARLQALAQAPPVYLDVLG

Row | IC50 | SMILES
1 | 508 nM | O=C(Nc1cccc(C(F)(F)F)c1)Nc1cnc2ccc(N3CCC[C@@H]3c3cc(F)ccc3F)nn12 [Example 8, (R)-1-(6-(2-(2,5-difluorophenyl)pyrrolidin-1-yl)imidazo[1,2-b]pyridazin-3-yl)-3-(3-(trifluoromethyl)phenyl)urea]
2 | 176 nM | COc1cc(NC(=O)Nc2cnc3ccc(N4CCC[C@@H]4c4cc(F)ccc4F)nn23)cc(OC)c1OC [Example 32, (R)-1-(6-(2-(2,5-difluorophenyl)pyrrolidin-1-yl)imidazo[1,2-b]pyridazin-3-yl)-3-(3,4,5-trimethoxyphenyl)urea]
3 | 10.7 nM | N#Cc1ccc(NC(=O)Nc2cnc3ccc(N4CCC[C@@H]4c4cc(F)ccc4F)nn23)cc1 [Example 6, (R)-1-(4-cyanophenyl)-3-(6-(2-(2,5-difluorophenyl)pyrrolidin-1-yl)imidazo[1,2-b]pyridazin-3-yl)urea]
4 | 5.5 nM | COc1ccc(NC(=O)Nc2cnc3ccc(N4CCC[C@@H]4c4cc(F)ccc4F)nn23)cc1 [Example 30, (R)-1-(6-(2-(2,5-difluorophenyl)pyrrolidin-1-yl)imidazo[1,2-b]pyridazin-3-yl)-3-(4-methoxyphenyl)urea]
5 | 901 nM | Cc1noc(C)c1NC(=O)Nc1cnc2ccc(N3CCC[C@@H]3c3cc(F)ccc3F)nn12 [Example 33, (R)-1-(6-(2-(2,5-difluorophenyl)pyrrolidin-1-yl)imidazo[1,2-b]pyridazin-3-yl)-3-(3,5-dimethylisoxazol-4-yl)urea]
6 | 10.2 nM | Cn1cc(C(=O)Nc2cnc3ccc(N4CCC[C@@H]4c4cc(F)ccc4F)nn23)ccc1=O [Example 56, (R)-N-(6-(2-(2,5-difluorophenyl)pyrrolidin-1-yl)imidazo[1,2-b]pyridazin-3-yl)-1-methyl-6-oxo-1,6-dihydropyridine-3-carboxamide]
7 | 2.3 nM | Cn1nc(C(=O)Nc2cnc3ccc(N4CCC[C@@H]4c4cc(F)ccc4F)nn23)ccc1=O [Example 57, (R)-N-(6-(2-(2,5-difluorophenyl)pyrrolidin-1-yl)imidazo[1,2-b]pyridazin-3-yl)-1-methyl-6-oxo-1,6-dihydropyridazine-3-carboxamide]
8 | 2.1 nM | CS(=O)(=O)Nc1ccc(C(=O)Nc2cnc3ccc(N4CCC[C@@H]4c4cc(F)ccc4F)nn23)cc1 [Example 4, (R)-N-(6-(2-(2,5-difluorophenyl)pyrrolidin-1-yl)imidazo[1,2-b]pyridazin-3-yl)-4-(methylsulfonamido)benzamide]
9 | 216 nM | O=C(Nc1cnc2ccc(N3CCCCC3c3cccc(F)c3)nn12)N1CC(O)C1 (stereo not drawn) [Example 43, N-(6-(2-(3-fluorophenyl)piperidin-1-yl)imidazo[1,2-b]pyridazin-3-yl)-3-hydroxyazetidine-1-carboxamide]
10 | 39.4 nM | O=C(Nc1ccc(Cl)cc1Cl)Nc1cnc2ccc(N3CCC[C@@H]3c3cc(F)ccc3F)nn12 [Example 7, (R)-1-(2,4-dichlorophenyl)-3-(6-(2-(2,5-difluorophenyl)pyrrolidin-1-yl)imidazo[1,2-b]pyridazin-3-yl)urea]
11 | 8.3 nM | CC(C)(C)OC(=O)N1CCN(C(=O)Nc2cnc3ccc(N4CCC[C@@H]4c4cc(F)ccc4F)nn23)CC1(C)C [Example 48, (R)-tert-butyl 4-(6-(2-(2,5-difluorophenyl)pyrrolidin-1-yl)imidazo[1,2-b]pyridazin-3-ylcarbamoyl)-2,2-dimethylpiperazine-1-carboxylate]
12 | 74.2 nM | N#Cc1cccc(NC(=O)Nc2cnc3ccc(N4CCC[C@@H]4c4cc(F)ccc4F)nn23)c1 [Example 5, (R)-1-(3-cyanophenyl)-3-(6-(2-(2,5-difluorophenyl)pyrrolidin-1-yl)imidazo[1,2-b]pyridazin-3-yl)urea]
